What was measured:
[1] = target: T1, Amine oxidase [flavin-containing] B (Homo sapiens, UniProt P27338); assay: Inhibition of recombinant human MAO-B expressed in baculovirus infected BTI insect cells using kynuramine as substrate after 30 mins by fluorimetric method; assay type: cell-based
T1 sequence (P27338 whole entry): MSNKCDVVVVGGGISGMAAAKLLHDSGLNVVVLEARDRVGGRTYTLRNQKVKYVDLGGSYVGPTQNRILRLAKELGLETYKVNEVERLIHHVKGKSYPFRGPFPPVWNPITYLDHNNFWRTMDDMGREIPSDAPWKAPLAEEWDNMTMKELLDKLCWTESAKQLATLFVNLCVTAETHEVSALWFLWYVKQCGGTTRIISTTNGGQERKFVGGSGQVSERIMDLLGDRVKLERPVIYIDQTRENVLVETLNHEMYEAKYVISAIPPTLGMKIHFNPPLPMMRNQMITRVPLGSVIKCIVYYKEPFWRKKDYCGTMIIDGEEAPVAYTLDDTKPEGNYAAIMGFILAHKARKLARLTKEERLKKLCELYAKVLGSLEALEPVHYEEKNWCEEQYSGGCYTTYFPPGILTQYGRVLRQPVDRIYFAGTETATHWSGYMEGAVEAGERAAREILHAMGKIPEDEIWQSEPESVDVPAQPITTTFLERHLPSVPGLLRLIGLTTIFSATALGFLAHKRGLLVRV

Homo sapiens = organism: Homo sapiens; assay: Selectivity index, ratio of IC50 for recombinant human MAO-A expressed in baculovirus infected BTI insect cells to IC50 for recombinant human MAO-B expressed in baculovirus infected BTI insect cells
[2] = test system: BuChE (butyrylcholinesterase); assay: Inhibition of rat serum BuChE at 50 uM using S-butylthiocholine iodide as substrate measured after 15 mins by Ellman's method relative to control; settings: probe S-butylthiocholine iodide
Acetylcholinesterase = Acetylcholinesterase (Electrophorus electricus, UniProt O42275); assay: Inhibition of electric eel AChE using acetylthiocholine iodide as substrate measured after 15 mins by Ellman's method
Sequence of Acetylcholinesterase (O42275 whole entry): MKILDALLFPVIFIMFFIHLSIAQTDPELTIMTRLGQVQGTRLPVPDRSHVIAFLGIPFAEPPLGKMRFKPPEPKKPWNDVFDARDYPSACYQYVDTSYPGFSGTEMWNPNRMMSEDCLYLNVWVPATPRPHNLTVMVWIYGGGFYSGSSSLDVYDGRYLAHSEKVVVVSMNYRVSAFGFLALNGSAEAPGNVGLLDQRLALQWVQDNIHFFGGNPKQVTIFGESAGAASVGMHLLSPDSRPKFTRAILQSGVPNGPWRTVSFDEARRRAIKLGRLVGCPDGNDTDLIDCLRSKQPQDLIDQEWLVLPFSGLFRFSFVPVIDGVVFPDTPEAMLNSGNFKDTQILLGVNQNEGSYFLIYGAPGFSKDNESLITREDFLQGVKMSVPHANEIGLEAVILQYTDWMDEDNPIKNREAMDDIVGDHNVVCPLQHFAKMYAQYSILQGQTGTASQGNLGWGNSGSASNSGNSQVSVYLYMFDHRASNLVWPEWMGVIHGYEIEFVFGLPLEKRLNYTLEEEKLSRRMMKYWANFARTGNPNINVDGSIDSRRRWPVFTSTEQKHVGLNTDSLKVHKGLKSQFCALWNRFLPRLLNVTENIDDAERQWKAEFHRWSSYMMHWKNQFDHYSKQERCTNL

[3] = target: T2, Amine oxidase [flavin-containing] A (Homo sapiens, UniProt P21397); assay: Inhibition of recombinant human MAO-A expressed in baculovirus infected BTI insect cells using kynuramine as substrate after 30 mins by fluorimetric method
T2 sequence (P21397 whole entry): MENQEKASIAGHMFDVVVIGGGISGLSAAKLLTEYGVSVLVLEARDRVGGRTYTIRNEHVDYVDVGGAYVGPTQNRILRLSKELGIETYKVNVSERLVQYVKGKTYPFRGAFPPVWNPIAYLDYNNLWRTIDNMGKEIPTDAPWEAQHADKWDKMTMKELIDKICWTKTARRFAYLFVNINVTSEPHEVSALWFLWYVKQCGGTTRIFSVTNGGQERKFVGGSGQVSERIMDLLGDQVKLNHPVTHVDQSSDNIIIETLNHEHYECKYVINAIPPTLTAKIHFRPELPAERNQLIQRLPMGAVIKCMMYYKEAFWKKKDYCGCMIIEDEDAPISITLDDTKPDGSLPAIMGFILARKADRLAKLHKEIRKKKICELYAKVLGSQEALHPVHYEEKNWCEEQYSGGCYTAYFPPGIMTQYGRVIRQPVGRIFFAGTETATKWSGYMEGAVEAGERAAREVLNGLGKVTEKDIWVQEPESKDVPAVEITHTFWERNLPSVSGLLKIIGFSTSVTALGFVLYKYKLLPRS

[4] = target: Amyloid-beta precursor protein (Homo sapiens) (UniProt P05067); assay: Inhibition of self-induced amyloid beta (1 to 42) (unknown origin) aggregation at 25 uM measured after 24 hrs by ThT fluorescence assay relative to control
Sequence of Amyloid-beta precursor protein (Homo sapiens) (P05067 whole entry): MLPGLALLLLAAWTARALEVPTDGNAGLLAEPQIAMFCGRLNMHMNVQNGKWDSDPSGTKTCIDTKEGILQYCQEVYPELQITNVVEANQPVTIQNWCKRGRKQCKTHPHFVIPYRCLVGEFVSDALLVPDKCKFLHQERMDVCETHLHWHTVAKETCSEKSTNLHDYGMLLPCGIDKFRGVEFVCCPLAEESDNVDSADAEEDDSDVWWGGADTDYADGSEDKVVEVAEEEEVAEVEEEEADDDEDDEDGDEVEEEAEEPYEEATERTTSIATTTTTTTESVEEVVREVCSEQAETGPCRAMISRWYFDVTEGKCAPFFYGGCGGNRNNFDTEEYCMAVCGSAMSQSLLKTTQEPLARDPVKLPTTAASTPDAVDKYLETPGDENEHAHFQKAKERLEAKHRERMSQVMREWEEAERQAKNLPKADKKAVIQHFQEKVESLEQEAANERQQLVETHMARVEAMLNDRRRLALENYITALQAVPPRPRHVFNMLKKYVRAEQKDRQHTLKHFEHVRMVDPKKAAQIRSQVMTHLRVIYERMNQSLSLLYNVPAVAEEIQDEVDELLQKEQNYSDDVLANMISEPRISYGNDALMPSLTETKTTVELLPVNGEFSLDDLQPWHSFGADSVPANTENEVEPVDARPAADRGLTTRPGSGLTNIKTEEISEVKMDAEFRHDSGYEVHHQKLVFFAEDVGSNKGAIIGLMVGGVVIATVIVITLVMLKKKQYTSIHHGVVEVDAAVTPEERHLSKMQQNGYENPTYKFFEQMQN

[5] = Antioxidant activity assessed as trolox equivalent of AAPH-induced radical scavenging activity at 5 uM incubated for 15 mins prior to APPH challenge measured every minute for 90 mins by ORAC-FL assay; assay type: functional
[6] = Inhibition of cupric ion-mediated amyloid beta (1 to 42) aggregation at 25 uM measured after 24 hrs by ThT fluorescence assay relative to control
[7] = Permeability of the compound at 100 ug/ml after 18 hrs by PAMPA; assay type: physicochemical; settings: read-out: permeability

SMILES | IC50 [1] | Ratio IC50 (Homo sapiens) | inhibition at 0.25 h, 50 µM [2] | IC50 (Acetylcholinesterase) | IC50 [3] | inhibition [4] | Activity [5] | inhibition [6] | Papp at 18 h, 100 ug/ml [7]
CCN(CCCOc1cc(O)c2c(=O)c3ccccc3sc2c1)Cc1ccccc1 | 7130 nM | 1.85 | 31.8% | 18400 nM | 13200 nM | 46.9% | 0.59 µMequiv/µM | 70.9% | –
COc1ccccc1CN(C)CCCCCCOc1cc(O)c2c(=O)c3ccccc3sc2c1 | 380 nM | 2.71 | 14.9% | 4280 nM | 1030 nM | 68% | 0.66 µMequiv/µM | 86.5% | –
CCN(CCCCOc1cc(O)c2c(=O)c3ccccc3sc2c1)Cc1ccc(N(C)C)cc1 | 2200 nM | 0.45 | 7.15% | 25400 nM | 1000 nM | 77.1% | 1.5 µMequiv/µM | 81.9% | –
CCN(CCCOc1cc(O)c2c(=O)c3ccccc3sc2c1)Cc1ccc(N(C)C)cc1 | 3550 nM | 0.79 | < 5% | 17700 nM | 2790 nM | 64.8% | 1.38 µMequiv/µM | 85.4% | –
COc1ccccc1CN(C)CCCOc1cc(O)c2c(=O)c3ccccc3sc2c1 | 6090 nM | 1.04 | 30.2% | 28700 nM | 6310 nM | 45.2% | 0.22 µMequiv/µM | 77.8% | –
CN(CCCOc1cc(O)c2c(=O)c3ccccc3sc2c1)Cc1ccccc1 | 1730 nM | 9.25 | < 5% | 11200 nM | 16000 nM | 40.5% | 0.48 µMequiv/µM | 81.1% | –
CCN(CCCCCCOc1cc(O)c2c(=O)c3ccccc3sc2c1)Cc1ccccc1 | 330 nM | 4.36 | 8.83% | 580 nM | 1440 nM | 50.6% | 0.17 µMequiv/µM | 76.4% | 4.12 ×10⁻⁶ cm/s
CCN(CCCOc1cc(O)c2c(=O)c3ccccc3sc2c1)Cc1ccccc1OC | 1880 nM | 4.35 | 17.3% | 2790 nM | 8170 nM | 68.2% | 0.68 µMequiv/µM | 80% | –
CCN(CCCCCCOc1cc(O)c2c(=O)c3ccccc3sc2c1)Cc1ccc(N(C)C)cc1 | 390 nM | 3.21 | < 5% | 33800 nM | 1250 nM | 76.3% | 1.37 µMequiv/µM | 91.3% | –
CCN(CCCCCCOc1cc(O)c2c(=O)c3ccccc3sc2c1)Cc1ccccc1OC | 460 nM | 2.83 | 13.9% | 11500 nM | 1300 nM | 78.7% | 0.83 µMequiv/µM | 86.3% | –
CN(CCCCOc1cc(O)c2c(=O)c3ccccc3sc2c1)Cc1ccccc1 | 370 nM | 1.54 | < 5% | 12400 nM | 570 nM | 79.5% | 1.18 µMequiv/µM | 88.6% | –
CCN(CCCOc1cc(O)c2c(=O)c3ccccc3sc2c1)Cc1ccccc1N(C)C | 3730 nM | 1.59 | 22.4% | 250 nM | 5940 nM | 46.9% | 0.35 µMequiv/µM | 75.7% | –
COc1cc(/C=C/C(=O)CC(=O)/C=C/c2ccc(O)c(OC)c2)ccc1O | – | – | – | – | – | – | 2.43 µMequiv/µM | 70% | –
O=c1c2ccccc2sc2cc(O)cc(O)c12 | 300 nM | 0.93 | < 5% | 38900 nM | 280 nM | 9.5% | 0.42 µMequiv/µM | 31.4% | –
CCN(CCCCOc1cc(O)c2c(=O)c3ccccc3sc2c1)Cc1ccccc1 | 270 nM | 1.26 | < 5% | 22000 nM | 340 nM | 75.8% | 1 µMequiv/µM | 82.1% | –
CCN(CCCCOc1ccc(-c2coc3cc(OCCCCN(CC)Cc4ccccc4OC)cc(O)c3c2=O)cc1)Cc1ccccc1OC | – | – | 20% | – | – | – | 0.3 µMequiv/µM | 77.8% | –
CCN(CCCCOc1cc(O)c2c(=O)c3ccccc3sc2c1)Cc1ccccc1OC | 880 nM | 1.16 | < 5% | 15500 nM | 1020 nM | 89.4% | 0.57 µMequiv/µM | 82% | –
COc1ccccc1CN(C)CCCCOc1cc(O)c2c(=O)c3ccccc3sc2c1 | 590 nM | 1.05 | 5.62% | 9160 nM | 620 nM | 79.9% | 1.04 µMequiv/µM | 88% | –
CN(CCCCCCOc1cc(O)c2c(=O)c3ccccc3sc2c1)Cc1ccccc1 | 350 nM | 1.63 | < 5% | 320 nM | 570 nM | 47.5% | 0.37 µMequiv/µM | 76.8% | –
CCN(CCCCOc1cc(O)c2c(=O)c3ccccc3sc2c1)Cc1ccccc1N(C)C | 2020 nM | 0.76 | 30.3% | 2880 nM | 1540 nM | 72.1% | 0.95 µMequiv/µM | 82.1% | –
